Here are results for twelve compounds from patent US9605004B2, “Chemical compounds” (SYNGENTA LIMITED, priority 2013, dated 2017).

Test [1] relates to a variety of test species. The experiment in a line: Pre-emergence herbicidal activity (Example 8a, Table 2). Type of test: in vivo. The conditions noted are these: application pre-emergence, rate 1000 g/ha, evaluated after 13 days. The arrangement: key: 0 = no damage to plant, 5 = total damage to plant. The method in brief:
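Pre-emergence spray, one day post-sowing; vehicle acetone/water (50:50) + 0.5% Tween 20, aqueous dilution. Glasshouse 24/16 °C, 14 h light, 65% RH, watering twice daily. Score at 13 d on 0–5 scale, 5 = total damage.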

Test [2] concerns a variety of test species. The experiment in a line: Post-emergence herbicidal activity (Example 8b, Table 3). It counts as in vivo. The conditions noted are these: application post-emergence, rate 1000 g/ha, evaluated after 13 days, scale 0-5; for Herbicidal damage score, ABUTH: Abutilon theophrasti; for Herbicidal damage score, ALOMY: Alopecurus myosuroides; for Herbicidal damage score, AMARE: Amaranthus retroflexus; for Herbicidal damage score, ECHCG: Echinochloa crus-galli; for Herbicidal damage score, SETFA: Setaria faberi; for Herbicidal damage score, ZEAMX: Zea mays. The method in brief:
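Damage was rated 0-5 (5 = total) 13 days after a post-emergence spray of acetone/water (50:50) plus 0.5% Tween 20 formulation. Plants were sprayed at 8 days' growth and kept at 24/16° C, 14 h light, 65% humidity, watered twice daily.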

As for `CCC1=C(Br)C(=O)N(c2nn(C)c(C(C)(C)C)c2C#N)C1O` (stereo not drawn) [Compound L2], in test [1], the “Pre-emergence herbicidal activity, damage score ABUTH” value came to 4; the “Pre-emergence herbicidal activity, damage score ALOMY” value turned out to be 3; the “Pre-emergence herbicidal activity, damage score AMARE” value came out at 3; the “Pre-emergence herbicidal activity, damage score ECHCG” value was found to be 4. Further, in test [1], the “Pre-emergence herbicidal activity, damage score SETFA” value is 3 and the “Pre-emergence herbicidal activity, damage score ZEAMX” value is 0. Besides, in test [2], the “Herbicidal damage score, ABUTH” value was found to be 5; the “Herbicidal damage score, ALOMY” value turned out to be 5; the “Herbicidal damage score, AMARE” value was 5; the “Herbicidal damage score, ECHCG” value is listed as 5. Moreover, in test [2], the “Herbicidal damage score, SETFA” value stood at 5 and the “Herbicidal damage score, ZEAMX” value was 1.

On to `CCCC1=C(Br)C(=O)N(c2nn(C)c(C(C)(C)C)c2C#N)C1OC(=O)CC` (stereo not drawn) [Compound L3], for which, in test [1], the “Pre-emergence herbicidal activity, damage score ABUTH” value was determined as 4; the “Pre-emergence herbicidal activity, damage score ALOMY” value is 3; the “Pre-emergence herbicidal activity, damage score AMARE” value stood at 3; the “Pre-emergence herbicidal activity, damage score ECHCG” value is recorded as 4. In addition, in test [1], the “Pre-emergence herbicidal activity, damage score SETFA” value stood at 3 and the “Pre-emergence herbicidal activity, damage score ZEAMX” value is recorded as 2. For the same compound, in test [2], the “Herbicidal damage score, ABUTH” value worked out at 5; the “Herbicidal damage score, ALOMY” value turned out to be 4; the “Herbicidal damage score, AMARE” value was 4; the “Herbicidal damage score, ECHCG” value is given as 5. In test [2], the “Herbicidal damage score, SETFA” value turned out to be 5 and the “Herbicidal damage score, ZEAMX” value was determined as 2.

Take `CCCC1=C(Br)C(=O)N(c2nn(C)c(C(C)(C)C)c2C#N)C1O` (stereo not drawn) [Compound L4]: in test [1], the “Pre-emergence herbicidal activity, damage score ABUTH” value came out at 4; the “Pre-emergence herbicidal activity, damage score ALOMY” value is recorded as 4; the “Pre-emergence herbicidal activity, damage score AMARE” value was 3; the “Pre-emergence herbicidal activity, damage score ECHCG” value stood at 5. Besides, in test [1], the “Pre-emergence herbicidal activity, damage score SETFA” value came to 4 and the “Pre-emergence herbicidal activity, damage score ZEAMX” value was 2. Moreover, in test [2], the “Herbicidal damage score, ABUTH” value was determined as 5; the “Herbicidal damage score, ALOMY” value is 5; the “Herbicidal damage score, AMARE” value is reported as 5; the “Herbicidal damage score, ECHCG” value is given as 5. In addition, in test [2], the “Herbicidal damage score, SETFA” value worked out at 5 and the “Herbicidal damage score, ZEAMX” value is given as 2.

Turning to `CC1=C(Br)C(=O)N(c2cc3n(n2)CCC3(C)C)C1O` (stereo not drawn) [Compound M1], in test [1], the “Pre-emergence herbicidal activity, damage score ABUTH” value came out at 5; the “Pre-emergence herbicidal activity, damage score ALOMY” value is reported as 4; the “Pre-emergence herbicidal activity, damage score AMARE” value came out at 5; the “Pre-emergence herbicidal activity, damage score ECHCG” value is given as 5. In addition, in test [1], the “Pre-emergence herbicidal activity, damage score SETFA” value is 5 and the “Pre-emergence herbicidal activity, damage score ZEAMX” value was 4. Moreover, in test [2], the “Herbicidal damage score, ABUTH” value is 5; the “Herbicidal damage score, ALOMY” value is 5; the “Herbicidal damage score, AMARE” value is 5; the “Herbicidal damage score, ECHCG” value was 5. In test [2], the “Herbicidal damage score, SETFA” value turned out to be 5 and the “Herbicidal damage score, ZEAMX” value is recorded as 4.

Regarding `CC1=C(Br)C(=O)N(c2cc3n(n2)CCCC3(C)C)C1O` (stereo not drawn) [Compound M2], in test [1], the “Pre-emergence herbicidal activity, damage score ABUTH” value came out at 5; the “Pre-emergence herbicidal activity, damage score ALOMY” value was 4; the “Pre-emergence herbicidal activity, damage score AMARE” value came to 5; the “Pre-emergence herbicidal activity, damage score ECHCG” value was 5. Also, in test [1], the “Pre-emergence herbicidal activity, damage score SETFA” value was determined as 4 and the “Pre-emergence herbicidal activity, damage score ZEAMX” value is listed as 3. Moreover, in test [2], the “Herbicidal damage score, ABUTH” value is reported as 5; the “Herbicidal damage score, ALOMY” value worked out at 5; the “Herbicidal damage score, AMARE” value was determined as 5; the “Herbicidal damage score, ECHCG” value was found to be 5. For the same compound, in test [2], the “Herbicidal damage score, SETFA” value is 5 and the “Herbicidal damage score, ZEAMX” value is on record as 3.

Take `CC1=C(Br)C(=O)N(c2cc3n(n2)CCSC3(C)C)C1O` (stereo not drawn) [Compound M3]: in test [1], the “Pre-emergence herbicidal activity, damage score ABUTH” value was determined as 4; the “Pre-emergence herbicidal activity, damage score ALOMY” value was 3; the “Pre-emergence herbicidal activity, damage score AMARE” value came out at 5; the “Pre-emergence herbicidal activity, damage score ECHCG” value is given as 3. Further, in test [1], the “Pre-emergence herbicidal activity, damage score SETFA” value worked out at 2 and the “Pre-emergence herbicidal activity, damage score ZEAMX” value turned out to be 0. Further, in test [2], the “Herbicidal damage score, ABUTH” value is 5; the “Herbicidal damage score, ALOMY” value is given as 5; the “Herbicidal damage score, AMARE” value is 5; the “Herbicidal damage score, ECHCG” value was determined as 5. In addition, in test [2], the “Herbicidal damage score, SETFA” value was found to be 5 and the “Herbicidal damage score, ZEAMX” value was 1.

On to `CC1=C(Br)C(=O)N(c2cc3n(n2)CCS(=O)(=O)C3(C)C)C1O` (stereo not drawn) [Compound M4], for which, in test [1], the “Pre-emergence herbicidal activity, damage score ABUTH” value was 5; the “Pre-emergence herbicidal activity, damage score ALOMY” value was 2; the “Pre-emergence herbicidal activity, damage score AMARE” value was 5; the “Pre-emergence herbicidal activity, damage score ECHCG” value turned out to be 2. Besides, in test [1], the “Pre-emergence herbicidal activity, damage score SETFA” value came out at 2 and the “Pre-emergence herbicidal activity, damage score ZEAMX” value came out at 1. In addition, in test [2], the “Herbicidal damage score, ABUTH” value is 5; the “Herbicidal damage score, ALOMY” value is on record as 4; the “Herbicidal damage score, AMARE” value was 5; the “Herbicidal damage score, ECHCG” value is reported as 5. Further, in test [2], the “Herbicidal damage score, SETFA” value was determined as 4 and the “Herbicidal damage score, ZEAMX” value was found to be 0.

Regarding `CC1=C(Br)C(=O)N(c2nn(C)c3c2CCC3(C)C)C1O` (stereo not drawn) [Compound N1], in test [1], the “Pre-emergence herbicidal activity, damage score ABUTH” value amounted to 5; the “Pre-emergence herbicidal activity, damage score ALOMY” value came to 4; the “Pre-emergence herbicidal activity, damage score AMARE” value came out at 5; the “Pre-emergence herbicidal activity, damage score ECHCG” value is recorded as 4. In test [1], the “Pre-emergence herbicidal activity, damage score SETFA” value is listed as 5 and the “Pre-emergence herbicidal activity, damage score ZEAMX” value is 4. For the same compound, in test [2], the “Herbicidal damage score, ABUTH” value amounted to 5; the “Herbicidal damage score, ALOMY” value amounted to 5; the “Herbicidal damage score, AMARE” value was 5; the “Herbicidal damage score, ECHCG” value was found to be 5. Further, in test [2], the “Herbicidal damage score, SETFA” value is 5 and the “Herbicidal damage score, ZEAMX” value was 4.

For the compound `COC1=C(Br)C(=O)N(c2nn(C)c(C(C)(C)C)c2Br)C1O` (stereo not drawn) [Compound O1], in test [1], the “Pre-emergence herbicidal activity, damage score ABUTH” value is on record as 0; the “Pre-emergence herbicidal activity, damage score ALOMY” value is 0; the “Pre-emergence herbicidal activity, damage score AMARE” value turned out to be 0; the “Pre-emergence herbicidal activity, damage score ECHCG” value is 0. Further, in test [1], the “Pre-emergence herbicidal activity, damage score SETFA” value worked out at 0 and the “Pre-emergence herbicidal activity, damage score ZEAMX” value is 0. Also, in test [2], the “Herbicidal damage score, ABUTH” value worked out at 0; the “Herbicidal damage score, ALOMY” value is reported as 0; the “Herbicidal damage score, AMARE” value stood at 0; the “Herbicidal damage score, ECHCG” value was found to be 0. Besides, in test [2], the “Herbicidal damage score, SETFA” value is given as 0 and the “Herbicidal damage score, ZEAMX” value is reported as 0.

On to `COC1=C(C)C(O)N(c2cc3n(n2)CCC3(C)C)C1=O` (stereo not drawn) [Compound R1], for which, in test [1], the “Pre-emergence herbicidal activity, damage score ABUTH” value is recorded as 5; the “Pre-emergence herbicidal activity, damage score ALOMY” value amounted to 4; the “Pre-emergence herbicidal activity, damage score AMARE” value stood at 5; the “Pre-emergence herbicidal activity, damage score ECHCG” value is given as 5. Also, in test [1], the “Pre-emergence herbicidal activity, damage score SETFA” value amounted to 5 and the “Pre-emergence herbicidal activity, damage score ZEAMX” value is 4. Also, in test [2], the “Herbicidal damage score, ABUTH” value was 5; the “Herbicidal damage score, ALOMY” value was determined as 5; the “Herbicidal damage score, AMARE” value turned out to be 5; the “Herbicidal damage score, ECHCG” value was found to be 5. Also, in test [2], the “Herbicidal damage score, SETFA” value was 5 and the “Herbicidal damage score, ZEAMX” value came out at 5.

In the case of `COC1=C(C)C(O)N(c2cc3n(n2)CCCC3(C)C)C1=O` (stereo not drawn) [Compound R2], in test [1], the “Pre-emergence herbicidal activity, damage score ABUTH” value came out at 5; the “Pre-emergence herbicidal activity, damage score ALOMY” value was determined as 4; the “Pre-emergence herbicidal activity, damage score AMARE” value is listed as 5; the “Pre-emergence herbicidal activity, damage score ECHCG” value worked out at 5. Moreover, in test [1], the “Pre-emergence herbicidal activity, damage score SETFA” value is on record as 5 and the “Pre-emergence herbicidal activity, damage score ZEAMX” value came out at 4. Moreover, in test [2], the “Herbicidal damage score, ABUTH” value is 5; the “Herbicidal damage score, ALOMY” value is reported as 5; the “Herbicidal damage score, AMARE” value came out at 5; the “Herbicidal damage score, ECHCG” value is 5. Moreover, in test [2], the “Herbicidal damage score, SETFA” value is reported as 5 and the “Herbicidal damage score, ZEAMX” value was 4.

Consider `COC1=C(OC)C(O)N(c2cc(C(C)(C)C)n(C)n2)C1=O` (stereo not drawn) [Compound T1], for which, in test [1], the “Pre-emergence herbicidal activity, damage score ABUTH” value was 5; the “Pre-emergence herbicidal activity, damage score ALOMY” value is recorded as 4; the “Pre-emergence herbicidal activity, damage score AMARE” value came out at 5; the “Pre-emergence herbicidal activity, damage score ECHCG” value was 5. In test [1], the “Pre-emergence herbicidal activity, damage score SETFA” value is 4 and the “Pre-emergence herbicidal activity, damage score ZEAMX” value was determined as 2. In test [2], the “Herbicidal damage score, ABUTH” value was found to be 5; the “Herbicidal damage score, ALOMY” value was determined as 5; the “Herbicidal damage score, AMARE” value came to 5; the “Herbicidal damage score, ECHCG” value is listed as 5. For the same compound, in test [2], the “Herbicidal damage score, SETFA” value was determined as 5 and the “Herbicidal damage score, ZEAMX” value came to 3.
